In patent US20200277646A1, “METHOD OF DETERMINING TERPENE-BASED BIOCONTROL AGENTS FOR CANNABIS AND HEMP” (priority 2019, published 2020):

Assays:
Type in all cases: cell-based
[1] = system: three mold species and one species of Enterobacteriaceae found on cannabis flowers; experiment: Paper inhibition disc trials across several microbial species; conditions: paper inhibition discs with terpene dilutions in ethanol; EB species and three mold species
From the text: The method of determining terpene-based biocontrol agents for use on cannabis and hemp include processing steps that include a. Isolate epiphytic microorganisms from cannabis ‘flower wash’ and isolate into pure cultures. b. Grow up individual fungal or bacterial broth cultures with shaking at RT until turbidity is evident; if, possible take OD600 nm reading of turbidity for each culture just prior to plating out serial dilutions onto agar plates to determine ˜CFU/ml. c. Based on CFU data from (b) above, re-inoculate fresh broth cultures for individual cultures monitoring OD600 nm to reach previous data point and make appropriate dilutions to attain complete seeding on agar petri plate. d. While allowing bacterial suspension to be absorbed into agar, prepare terpene-treated Whatman filter paper hole punches by aliquoting 25 μl of either full strength, 1:10 dilution or 1:100 dilution. Dilutions should be made into 1-15% MeOH or 1-2% castile soap. e. […] One terpene per plate at three concentrations with negative control. ii. One microbial culture seeded per plate. f. Allow plates to grow with incubation at 28° C. for overnight and photograph as well as measuring any zones of inhibition. Continue incubation for 2 more days, taking photographs and making measurements after each 24-hr period. g. Repeat steps (c) through (f) for each terpene against all microbial cultures.
These four plates show three mold species and one species of Enterobacteriaceae found on cannabis flowers 1010. One Enterobacteriaceae species sample plate and three mold species sample plates 1020. An Enterobacteriaceae Count Plate referred to herein as EB plate 1022, and mold species sample plates Mold 1 plate 1024, Mold 2 plate 1026, and Mold 3 plate 1028. The indicated colonies were picked and cultured prior to inoculation of agar petri dishes 1030. Paper inhibition discs with terpene dilutions in ethanol were applied immediately after inoculation of the agar plate as described previously 1040
The EB species and three mold species were tested for inhibition with the selected terpenes 1110. The indicated colonies were picked and cultured prior to inoculation of agar petri dishes 1120. Paper inhibition discs with terpene dilutions in ethanol were applied immediately after inoculation of the agar plate as described previously 1130. […] The results of the trials across several microbial species is continued in FIG. 11B.
There was also significant inhibition of bacterial growth by many of the terpenes 1150. Different microbial species were differentially affected by individual terpenes 1160. […]

[2] = system: yeast and mold species from certified reference materials; experiment: Paper disc inhibition on agar plates of yeast and mold species from certified reference materials; conditions: paper discs, terpene only, 10% and 1% dilutions in ethanol; ethanol-only center disc
Protocol: Paper discs were added to the plates, and small volumes of terpenes diluted in ethanol were added to the discs 902. The center discs had ethanol only, while ‘1:1’ discs had terpene only 904 and 10% and 1% dilutions of terpene in ethanol were also included 910. […] Many terpenes are likely to have inhibitory effects on microbial growth 940. […] Terpenes microbial growth inhibitor samples 970 include carene, humulene, limonene, ocimene, terpineol, and terpinolene of one embodiment.

[3] = system: mold found on a cannabis flower; experiment: Terpene added to known contaminated sample during preparation of the culture plate
From the text: Terpenes can inhibit the growth of mold found on a cannabis flower 840. An effective range is 1-5% with some inhibition at levels as low as 0.1% 850 of one embodiment.

Structure (SMILES)	effectiveness among terpenes tested [1]	inhibition of yeast and mold growth [2]	inhibition of mold growth ([3]; terpene added at 0.1% to known contaminated sample)	inhibition of mold growth ([3]; terpene added at 1% to known contaminated sample)
CC(C)=CCCC(C)=CC=O [Citral, citral]	the most effective of terpenes tested	–	–	–
C=CCc1ccc(O)c(OC)c1 [eugenol]	the most effective of terpenes tested	–	–	–
CC(C)=CCC/C(C)=C/CO [geraniol]	the most effective of terpenes tested	–	–	–
C=CC(C)(O)CCC=C(C)C (stereo not shown) [linalool]	the most effective of terpenes tested	–	–	–
CC1=CCC(=C(C)C)CC1 [terpinolene]	–	the most inhibition	significant inhibition of mold growth	significant inhibition of mold growth
